Measured values taken from patent publication US6767708B1, “Stabilized aqueous steroid immunoassay standards” (Abbott Laboratories, priority 1994, dated 2004).

Test: Stability of progesterone in charcoal stripped human serum stressed at 37° C. (percent loss by IMx Progesterone immunoassay)
Assay type: physicochemical
Conditions: for Reduction in % loss of progesterone over time by addition of chelator compared to no added reagent: days 0, 3, 8, 15 and 29, FIG. 1; for Percent loss of progesterone: 5 ng/mL progesterone in charcoal stripped human serum, after 29 days, relative to frozen aliquot
Description: Fifteen microliters (15 μL) of a serum sample were mixed with 80 μL of progesterone sample buffer, 80 μL of an anti-progesterone antibody coated microparticle suspension and 75 μL of IMx® Buffer. The reaction mixture was incubated for 20.8 minutes at 37° C. Progesterone sample buffer was an aqueous pH 2.8 solution of 2.25 M glycine, 0.5 μg/mL of 5-∝-dihydrotestosterone, 0.2% (w/v) saponin, 0.1 M sodium chloride and 0.1% methyl isothiazolinone (available from Rohm and Haas, Philadelphia, Pa.). The anti-progesterone antibody (available from University of Surry, Australia) coated microparticle suspension contained 0.001% solids (microparticles available from Seradyne, Indianapolis, Ind.) suspended in a buffer that was a pH 6.5 aqueous solution of 0.5 M morpholinoethanesulphonic acid (MES), 0.1 M sodium chloride, 10% sucrose, 2% bovine serum albumin (available from Intergen, Hawthorne, N.Y.), 0.1 mg/mL sheep IgG (50% ammonium sulfate cut of sheep serum obtained from Irvine Scientific, Santa Ana, Calif.) and 0.2% sodium azide.
One hundred seventy five microliters (175 μL) of the reaction mixture were transferred to the fiber matrix of an IMx® disposable cartridge. The microparticles were then washed with IMx® Buffer. Sixty microliters (60 μL) of 17-hydroxyprogesterone-3-(O-carboxymethyl)oxime alkaline phosphatase conjugate solution were added to the matrix, the reaction was incubated for 8 seconds at 37° C., and then washed again with IMx® Buffer. The conjugate solution contained 17-hydroxyprogesterone (available from Steraloids, Wilton, N.H.) coupled to alkaline phosphatase (available from Boehringer Mannheim, Germany) by means of the EDAC coupling procedure as described in U.S. Pat. No. 5,342,760. The conjugate solution was a pH 7.4 aqueous solution of 50 mM tris, 100 mM sodium chloride, 10 mM magnesium chloride, 0.1 mM zinc chloride, 0.5% casein (available from Sigma Chemical, St. Louis, Mo.) and 0.1% sodium azide containing sufficient conjugate to give a certain signal strength when utilized in an assay of sample free of analyte.
The addition of 4-methylumbelliferone phosphate and quantification of the rate of 4 methylumbelliferone formation was as described in Example 1. Using calibrators containing 0, 1, 4, 10, 20, and 40ng/mL of progesterone a standard curve was constructed.
Test samples were incubated at 37° C. and observed over a period of days or weeks.
Charcoal stripped human serum as prepared in Example 3 (non-alkaline shocked) (10 mL) was aliquoted into glass scintillation vials and various metal chelators were added to the following final concentrations:
Samples were incubated on a rocker for 12 min. at room temperature and then spiked to 5 ng/mL with 10 μg/mL progesterone (available from Sigma Chemical, Saint Louis, Mo.) prepared in an ethanol stock solution. Samples were assayed for baseline concentrations of progesterone following an 8 min. incubation on a rocker at room temperature. Four 1.0 mL aliquots of each composition were placed in TDx® microcentrifuge tubes (available from Abbott Laboratories, Abbott Park, Ill.) and stored frozen −20° C. The scintillation vials were incubated at 37° C. On the days indicated, aliquots were thawed and tested with the corresponding aliquots drawn from the vials stored at 37° C. to assess percent loss.
Percent loss (% loss) is an absolute determination of the loss of progesterone in the stressed sample relative to the frozen aliquot. […]

Percent loss of progesterone (10 mM DETP)	Percent loss of progesterone (no reagent added)	SMILES	Reduction in % loss of progesterone (ranking of chelators) (10 mM DETP, charcoal stripped human serum)	Reduction in % loss of progesterone over time by addition of chelator compared to no added reagent (charcoal stripped human serum)
		O=C(O)CN(CCN(CC(=O)O)CC(=O)O)CCN(CC(=O)O)CC(=O)O [DETP, diethylenetriaminepentaacetic acid]	most effective	reduction in % loss
		O=C(O)CN(CCN(CC(=O)O)CC(=O)O)CC(=O)O [EDTA, ethylenediaminetetraacetic acid]		reduction in % loss
eliminated	~80%	CC(=O)[C@H]1CC[C@H]2[C@@H]3CCC4=CC(=O)CC[C@]4(C)[C@H]3CC[C@]12C [progesterone]		
